Reference: PMC5218480 (PLoS ONE, 2017)

System: MV-4-11 cells
Assay: Gene expression microarray analysis (Affymetrix PrimeView) and GSEA
Format: cell-based, human
Set-up: RFU PODN (11730768_x_at) / Fold change /veh PODN (11730768_x_at) / RFU LINC00158 (11744669_a_at) / Fold change /veh LINC00158 (11744669_a_at) / RFU DUSP10 (11751237_a_at) / Fold change /veh DUSP10 (11751237_a_at) / RFU ID3 (11757404_x_at) / Fold change /veh ID3 (11757404_x_at) / RFU PLEKHG5 (11737974_s_at) / Fold change /veh PLEKHG5 (11737974_s_at) / RFU LRRC4B (11730491_at) / Fold change /veh LRRC4B (11730491_at) / RFU GIMAP4 (11747438_a_at) / Fold change /veh GIMAP4 (11747438_a_at) / RFU KRT8 (11758183_x_at) / Fold change /veh KRT8 (11758183_x_at) / RFU CNN1 (11734310_a_at) / Fold change /veh CNN1 (11734310_a_at) / RFU VPS37D (11726825_at) / Fold change /veh VPS37D (11726825_at) / RFU C10orf10 (11716522_x_at) / Fold change /veh C10orf10 (11716522_x_at) / RFU KIR2DL2 /// KIR2DL4 /// KIR2DL5A /// KIR2DL5B /// KIR2DS1 /// KIR2DS2 /// KIR2DS3 /// KIR2DS4 /// KIR3DL3 /// KIR3DL3 /// KIR3DS1 (11738374_at) / Fold change /veh KIR2DL2 /// KIR2DL4 /// KIR2DL5A /// KIR2DL5B /// KIR2DS1 /// KIR2DS2 /// KIR2DS3 /// KIR2DS4 /// KIR3DL3 /// KIR3DL3 /// KIR3DS1 (11738374_at) / RFU C1QL1 (11718748_at) / Fold change /veh C1QL1 (11718748_at) / RFU TMPRSS4 (11747572_a_at) / Fold change /veh TMPRSS4 (11747572_a_at) / RFU HAMP (11756126_x_at) / Fold change /veh HAMP (11756126_x_at) / RFU RNFT2 (11725882_a_at) / Fold change /veh RNFT2 (11725882_a_at) / RFU NR4A2 (11747474_a_at) / Fold change /veh NR4A2 (11747474_a_at) / RFU ABCC12 (11746883_a_at) / Fold change /veh ABCC12 (11746883_a_at) / RFU TMEM136 (11760407_x_at) / Fold change /veh TMEM136 (11760407_x_at) / RFU CLDN22 /// WWC2 (11732394_at) / Fold change /veh CLDN22 /// WWC2 (11732394_at) / RFU HLA-DPB1 (11760878_x_at) / Fold change /veh HLA-DPB1 (11760878_x_at) / RFU SPINT1 (11716480_a_at) / Fold change /veh SPINT1 (11716480_a_at) / RFU GAP43 (11754022_s_at) / Fold change /veh GAP43 (11754022_s_at) / RFU A4GNT (11735810_at) / Fold change /veh A4GNT (11735810_at) / RFU PRB3 (11715151_x_at) / Fold change /veh PRB3 (11715151_x_at) / RFU TUBB4B (11761932_at) / Fold change /veh TUBB4B (11761932_at) / RFU CAPN14 (11732068_a_at) / Fold change /veh CAPN14 (11732068_a_at) / RFU TMCC2 (11721928_a_at) / Fold change /veh TMCC2 (11721928_a_at) / RFU IRGQ (11745062_a_at) / Fold change /veh IRGQ (11745062_a_at) / RFU FAM174B (11720279_a_at) / Fold change /veh FAM174B (11720279_a_at) / RFU TMPRSS4 (11748680_a_at) / Fold change /veh TMPRSS4 (11748680_a_at) / RFU FAM212B (11763350_a_at) / Fold change /veh FAM212B (11763350_a_at) / RFU PLEKHG5 (11743358_a_at) / Fold change /veh PLEKHG5 (11743358_a_at) / RFU ZSCAN30 (11745921_a_at) / Fold change /veh ZSCAN30 (11745921_a_at) / RFU CMKLR1 (11741424_a_at) / Fold change /veh CMKLR1 (11741424_a_at) / RFU LOC101060620 /// MAPK8IP1 (11723275_at) / Fold change /veh LOC101060620 /// MAPK8IP1 (11723275_at) / RFU SPTSSB (11747773_x_at) / Fold change /veh SPTSSB (11747773_x_at) / RFU PRSS12 (11739890_at) / Fold change /veh PRSS12 (11739890_at) / RFU BIN1 (11741810_x_at) / Fold change /veh BIN1 (11741810_x_at) / RFU WNT11 (11732464_a_at) / Fold change /veh WNT11 (11732464_a_at) / RFU C10orf10 (11716521_a_at) / Fold change /veh C10orf10 (11716521_a_at) / RFU C5orf56 (11738089_at) / Fold change /veh C5orf56 (11738089_at) / RFU CYB561 (11721691_x_at) / Fold change /veh CYB561 (11721691_x_at) / RFU ANKRD19P (11752326_a_at) / Fold change /veh ANKRD19P (11752326_a_at) / RFU OR2T12 /// OR2T33 /// OR2T8 (11738714_s_at) / Fold change /veh OR2T12 /// OR2T33 /// OR2T8 (11738714_s_at) / RFU VCAN (11748164_a_at) / Fold change /veh VCAN (11748164_a_at) / RFU JSRP1 (11732532_at) / Fold change /veh JSRP1 (11732532_at) / RFU KRTAP10-11 (11738290_x_at) / Fold change /veh KRTAP10-11 (11738290_x_at) / RFU MYO3A (11730013_a_at) / Fold change /veh MYO3A (11730013_a_at) / RFU EBF3 (11725865_a_at) / Fold change /veh EBF3 (11725865_a_at) / RFU CAMK2N1 (11719241_x_at) / Fold change /veh CAMK2N1 (11719241_x_at) / RFU C5orf56 (11738088_a_at) / Fold change /veh C5orf56 (11738088_a_at) / RFU OLFML3 (11715873_a_at) / Fold change /veh OLFML3 (11715873_a_at) / RFU LOC100653217 /// NTM (11731650_a_at) / Fold change /veh LOC100653217 /// NTM (11731650_a_at) / RFU MAPK11 (11762145_a_at) / Fold change /veh MAPK11 (11762145_a_at) / RFU FIZ1 (11724087_x_at) / Fold change /veh FIZ1 (11724087_x_at) / RFU OASL (11726364_x_at) / Fold change /veh OASL (11726364_x_at) / RFU SOX15 (11748057_x_at) / Fold change /veh SOX15 (11748057_x_at) / RFU CD79A (11719716_a_at) / Fold change /veh CD79A (11719716_a_at) / RFU HIST1H1D (11736915_at) / Fold change /veh HIST1H1D (11736915_at) / RFU CASKIN2 (11723855_a_at) / Fold change /veh CASKIN2 (11723855_a_at) / RFU LOC730098 (11760151_x_at) / Fold change /veh LOC730098 (11760151_x_at) / RFU OR4N2 (11742367_at) / Fold change /veh OR4N2 (11742367_at) / RFU PRRT2 (11749266_a_at) / Fold change /veh PRRT2 (11749266_a_at) / RFU SNX32 (11753110_a_at) / Fold change /veh SNX32 (11753110_a_at) / RFU CDHR5 (11726645_a_at) / Fold change /veh CDHR5 (11726645_a_at) / RFU RCAN1 (11760418_a_at) / Fold change /veh RCAN1 (11760418_a_at) / RFU FAM167A (11723789_a_at) / Fold change /veh FAM167A (11723789_a_at) / RFU FAM26E (11764081_at) / Fold change /veh FAM26E (11764081_at) / RFU ISYNA1 (11749810_s_at) / Fold change /veh ISYNA1 (11749810_s_at) / RFU ACY1 (11761880_at) / Fold change /veh ACY1 (11761880_at) / RFU 11764098_at / Fold change /veh 11764098_at / RFU SAMD14 (11745864_x_at) / Fold change /veh SAMD14 (11745864_x_at) / RFU NPB (11741838_a_at) / Fold change /veh NPB (11741838_a_at) / RFU TMPRSS6 (11731388_a_at) / Fold change /veh TMPRSS6 (11731388_a_at) / RFU KRTAP10-2 (11738614_at) / Fold change /veh KRTAP10-2 (11738614_at) / RFU ARHGAP8 /// PRR5-ARHGAP8 (11727945_x_at) / Fold change /veh ARHGAP8 /// PRR5-ARHGAP8 (11727945_x_at) / RFU KRTAP5-7 /// NADSYN1 (11734609_at) / Fold change /veh KRTAP5-7 /// NADSYN1 (11734609_at) / RFU RASL12 (11751679_a_at) / Fold change /veh RASL12 (11751679_a_at) / RFU CDKN2B (11736163_a_at) / Fold change /veh CDKN2B (11736163_a_at) / RFU PRF1 (11729649_at) / Fold change /veh PRF1 (11729649_at) / RFU, ZNF638 /// ZNF638-IT1 / Fold change vs veh, ZNF638 /// ZNF638-IT1 / RFU, PANK3 / Fold change vs veh, PANK3 / RFU, SH3YL1 / Fold change vs veh, SH3YL1 / RFU, ZEB2 / Fold change vs veh, ZEB2 / RFU, NRIP1 / Fold change vs veh, NRIP1 / RFU, PTTG1IP / Fold change vs veh, PTTG1IP / RFU, CAPN2 / Fold change vs veh, CAPN2 / RFU, MED14 / Fold change vs veh, MED14 / RFU, SNORA58 / Fold change vs veh, SNORA58 / RFU, C1orf63 / Fold change vs veh, C1orf63 / RFU, LRRFIP1 / Fold change vs veh, LRRFIP1 / RFU, NDUFAF7 / Fold change vs veh, NDUFAF7 / RFU, SLC12A2 / Fold change vs veh, SLC12A2 / RFU, IBTK / Fold change vs veh, IBTK / RFU, ESF1 / Fold change vs veh, ESF1 / Fold change vs veh, TMEM50B / RFU, TAOK1 / Fold change vs veh, TAOK1 / RFU, ACBD3 / Fold change vs veh, ACBD3 / RFU, TMA16 / Fold change vs veh, TMA16 / RFU, RWDD3 / Fold change vs veh, RWDD3 / RFU, BCAT1 / Fold change vs veh, BCAT1 / RFU, EDEM3 / Fold change vs veh, EDEM3 / RFU, TMEM33 / Fold change vs veh, TMEM33 / RFU, WDR75 / Fold change vs veh, WDR75 / RFU, AHCTF1 / Fold change vs veh, AHCTF1 / RFU, TFRC / Fold change vs veh, TFRC / RFU, ZDHHC17 / Fold change vs veh, ZDHHC17 / RFU, NOM1 / Fold change vs veh, NOM1 / RFU, ARL8B / Fold change vs veh, ARL8B / RFU, ZBTB11 / Fold change vs veh, ZBTB11 / RFU, TAMM41 / Fold change vs veh, TAMM41 / RFU, KIAA1704 /// LOC100996395 / Fold change vs veh, KIAA1704 /// LOC100996395 / RFU, ING1 / Fold change vs veh, ING1 / RFU, TRMT61B / Fold change vs veh, TRMT61B / RFU, FUBP3 / Fold change vs veh, FUBP3 / RFU, TP53 / Fold change vs veh, TP53 / RFU, TNKS2 / Fold change vs veh, TNKS2 / RFU, ZFP14 / Fold change vs veh, ZFP14 / RFU, ACTR2 / Fold change vs veh, ACTR2 / RFU, PPP3R1 / Fold change vs veh, PPP3R1 / RFU, PIK3R1 / Fold change vs veh, PIK3R1 / RFU, HNRNPA1 / Fold change vs veh, HNRNPA1 / RFU, RNF170 / Fold change vs veh, RNF170 / RFU, ZNF28 / Fold change vs veh, ZNF28 / RFU, RNGTT / Fold change vs veh, RNGTT / RFU, OGT / Fold change vs veh, OGT / RFU, BRD1 / Fold change vs veh, BRD1 / RFU, MARS / Fold change vs veh, MARS / RFU, ZNF655 / Fold change vs veh, ZNF655 / RFU, FAHD1 / Fold change vs veh, FAHD1 / RFU, BDP1 / Fold change vs veh, BDP1 / RFU, LRRCC1 / Fold change vs veh, LRRCC1 / RFU, ARID1A / Fold change vs veh, ARID1A / RFU, ZNF146 / Fold change vs veh, ZNF146 / RFU, ZNF330 / Fold change vs veh, ZNF330 / RFU, GPN3 / Fold change vs veh, GPN3 / RFU, C9orf123 / Fold change vs veh, C9orf123 / RFU, N4BP2L2 / Fold change vs veh, N4BP2L2 / RFU, ARFIP1 / Fold change vs veh, ARFIP1 / RFU, FAM179B / Fold change vs veh, FAM179B / RFU, BCL10 / Fold change vs veh, BCL10 / RFU, UHRF1BP1L / Fold change vs veh, UHRF1BP1L / RFU, BET1 / Fold change vs veh, BET1 / RFU, CNOT2 / Fold change vs veh, CNOT2 / RFU, ZNF268 / Fold change vs veh, ZNF268 / Fold change vs veh, ZNF507 / RFU, DGCR2 / Fold change vs veh, DGCR2 / RFU, WDSUB1 / Fold change vs veh, WDSUB1 / Fold change vs veh, HSP90B1 /// MIR3652 / RFU, ADSS / Fold change vs veh, ADSS / RFU, GK / Fold change vs veh, GK / RFU, ZNF148 / Fold change vs veh, ZNF148 / RFU, TAF9 / Fold change vs veh, TAF9 / RFU, SLC1A5 / Fold change vs veh, SLC1A5 / RFU, SLMO2 / Fold change vs veh, SLMO2 / RFU, ABCC4 / Fold change vs veh, ABCC4 / RFU, LOC101060439 /// RAP1B / Fold change vs veh, LOC101060439 /// RAP1B / RFU, RFX7 / Fold change vs veh, RFX7 / RFU, GTPBP10 / Fold change vs veh, GTPBP10 / RFU, CNEP1R1 / Fold change vs veh, CNEP1R1 / RFU, BIVM-ERCC5 /// ERCC5 / Fold change vs veh, BIVM-ERCC5 /// ERCC5 / RFU, ILF3 / Fold change vs veh, ILF3 / RFU 11762660_at / Fold change /veh 11762660_at / RFU VCAN (11757783_s_at) / Fold change /veh VCAN (11757783_s_at) / RFU DDX43 (11728927_at) / Fold change /veh DDX43 (11728927_at) / RFU KRT8 (11758188_x_at) / Fold change /veh KRT8 (11758188_x_at) / RFU NKD1 (11759106_at) / Fold change /veh NKD1 (11759106_at) / RFU SRD5A1 (11742802_a_at) / Fold change /veh SRD5A1 (11742802_a_at) / RFU TPSAB1 /// TPSB2 (11721975_s_at) / Fold change /veh TPSAB1 /// TPSB2 (11721975_s_at) / RFU GSTM3 (11746129_a_at) / Fold change /veh GSTM3 (11746129_a_at) / RFU IL23R (11737362_x_at) / Fold change /veh IL23R (11737362_x_at) / RFU TMEM51 (11727254_a_at) / Fold change /veh TMEM51 (11727254_a_at) / RFU PIWIL2 (11732686_x_at) / Fold change /veh PIWIL2 (11732686_x_at) / RFU ORM1 (11744905_x_at) / Fold change /veh ORM1 (11744905_x_at) / RFU CCDC152 (11743942_at) / Fold change /veh CCDC152 (11743942_at) / RFU ECM1 (11717891_a_at) / Fold change /veh ECM1 (11717891_a_at) / RFU IL23R (11748794_a_at) / Fold change /veh IL23R (11748794_a_at) / RFU TNFAIP8L3 (11732012_x_at) / Fold change /veh TNFAIP8L3 (11732012_x_at) / RFU MBOAT4 (11741988_at) / Fold change /veh MBOAT4 (11741988_at) / RFU 11764193_at / Fold change /veh 11764193_at / RFU TMEM53 (11763286_at) / Fold change /veh TMEM53 (11763286_at) / RFU MAGEB2 (11727129_at) / Fold change /veh MAGEB2 (11727129_at) / RFU TMEM200A (11744735_a_at) / Fold change /veh TMEM200A (11744735_a_at) / RFU CCDC152 (11751479_a_at) / Fold change /veh CCDC152 (11751479_a_at) / RFU FAM211A (11726209_a_at) / Fold change /veh FAM211A (11726209_a_at) / RFU RGS16 (11746705_a_at) / Fold change /veh RGS16 (11746705_a_at) / RFU VCAN (11755009_s_at) / Fold change /veh VCAN (11755009_s_at) / RFU RHOB (11743442_s_at) / Fold change /veh RHOB (11743442_s_at) / RFU RGS16 (11720943_a_at) / Fold change /veh RGS16 (11720943_a_at) / RFU RGS16 (11720944_at) / Fold change /veh RGS16 (11720944_at) / RFU, VPS4B / Fold change vs veh, VPS4B / RFU, CREB1 / Fold change vs veh, CREB1 / RFU, DNAJC13 / Fold change vs veh, DNAJC13 / RFU, GNAQ / Fold change vs veh, GNAQ / RFU, CDK5R1 / Fold change vs veh, CDK5R1 / RFU, ZRANB3 / Fold change vs veh, ZRANB3 / RFU, CUL4A / Fold change vs veh, CUL4A / RFU, CCNY / Fold change vs veh, CCNY / RFU, UFL1 / Fold change vs veh, UFL1 / RFU, COG3 / Fold change vs veh, COG3 / RFU, DIAPH2 / Fold change vs veh, DIAPH2 / RFU, SKA2 / Fold change vs veh, SKA2 / RFU, AFF3 / Fold change vs veh, AFF3 / RFU, LMF1 / Fold change vs veh, LMF1 / RFU, IPO11 / Fold change vs veh, IPO11 / RFU, DFFB / Fold change vs veh, DFFB / RFU, FOXP1 / Fold change vs veh, FOXP1 / RFU, CARD8 / Fold change vs veh, CARD8 / RFU, STRN3 / Fold change vs veh, STRN3 / RFU, ADK / Fold change vs veh, ADK / RFU, RASSF2 / Fold change vs veh, RASSF2 / RFU, WIPF1 / Fold change vs veh, WIPF1 / RFU, LARP1B / Fold change vs veh, LARP1B / RFU, RASA1 / Fold change vs veh, RASA1 / RFU, RB1 / Fold change vs veh, RB1 / RFU, PPFIA1 / Fold change vs veh, PPFIA1 / RFU, MAT2A / Fold change vs veh, MAT2A / RFU, CCT5 / Fold change vs veh, CCT5 / RFU, WDR92 / Fold change vs veh, WDR92 / RFU, CUX1 / Fold change vs veh, CUX1 / RFU, TTC7A / Fold change vs veh, TTC7A / RFU, TMEM135 / Fold change vs veh, TMEM135 / RFU, DEPTOR / Fold change vs veh, DEPTOR / RFU, CPM / Fold change vs veh, CPM / RFU, DNAJB6 / Fold change vs veh, DNAJB6 / RFU, CACNA2D3 / Fold change vs veh, CACNA2D3 / RFU, DTX4 / Fold change vs veh, DTX4 / RFU, TFCP2 / Fold change vs veh, TFCP2 / RFU, GMCL1 /// GMCL1P1 / Fold change vs veh, GMCL1 /// GMCL1P1 / RFU, AEBP2 / Fold change vs veh, AEBP2 / RFU, SNHG1 /// SNORD22 /// SNORD25 /// SNORD26 /// SNORD27 /// SNORD28 /// SNORD29 /// SNORD31 / Fold change vs veh, SNHG1 /// SNORD22 /// SNORD25 /// SNORD26 /// SNORD27 /// SNORD28 /// SNORD29 /// SNORD31 / Fold change (Aza/veh), C12orf56 (ProbeSet 11735607_a_at) / Fold change (ACY-1035/veh), C12orf56 (ProbeSet 11735607_a_at) / Fold change (Aza/veh), FGFR1OP (ProbeSet 11751329_s_at) / Fold change (ACY-1035/veh), FGFR1OP (ProbeSet 11751329_s_at) / Fold change (Aza/veh), VPS36 (ProbeSet 11739960_a_at) / Fold change (ACY-1035/veh), VPS36 (ProbeSet 11739960_a_at) / RFU SYPL1 (11715823_x_at) / Fold change /veh SYPL1 (11715823_x_at) / RFU IGFBP7 (11715501_s_at) / Fold change /veh IGFBP7 (11715501_s_at) / RFU REEP3 (11722064_at) / Fold change /veh REEP3 (11722064_at) / RFU IGLL1 (11728026_x_at) / Fold change /veh IGLL1 (11728026_x_at): dose or concentration left out as unconfirmed
Settings: ProbeSet 11718701_a_at; LIST B

For `Nc1ccc(-c2cccs2)cc1NC(=O)c1ccc2c(c1)cc(C1CC1)n2CCN1CCOCC1` [ACY-1035], the “Fold change vs veh, ARFIP1” value was 0.86.
